Measurements: ChEMBL document CHEMBL4507319 (2021)

Columns and labels:
Conditions in all cases: Compound concentration 1.0 uM
[1] = biological target: CDK7/Cyclin H/MNAT1 (Homo sapiens) (UniProt P51946+P50613+P51948); test: CDK7/cyclinH/MAT1(h) Eurofins kinase panel; assay type: protein-complex assay
[2] = biological target: Glycogen synthase kinase-3 alpha (Homo sapiens) (UniProt P49840); test: GSK3α(h) Eurofins kinase panel
[3] = biological target: T1, Inhibitor of nuclear factor kappa-B kinase subunit epsilon (Homo sapiens) (UniProt Q14164); test: IKKepsilon(h) Eurofins kinase panel
T1 sequence (whole entry): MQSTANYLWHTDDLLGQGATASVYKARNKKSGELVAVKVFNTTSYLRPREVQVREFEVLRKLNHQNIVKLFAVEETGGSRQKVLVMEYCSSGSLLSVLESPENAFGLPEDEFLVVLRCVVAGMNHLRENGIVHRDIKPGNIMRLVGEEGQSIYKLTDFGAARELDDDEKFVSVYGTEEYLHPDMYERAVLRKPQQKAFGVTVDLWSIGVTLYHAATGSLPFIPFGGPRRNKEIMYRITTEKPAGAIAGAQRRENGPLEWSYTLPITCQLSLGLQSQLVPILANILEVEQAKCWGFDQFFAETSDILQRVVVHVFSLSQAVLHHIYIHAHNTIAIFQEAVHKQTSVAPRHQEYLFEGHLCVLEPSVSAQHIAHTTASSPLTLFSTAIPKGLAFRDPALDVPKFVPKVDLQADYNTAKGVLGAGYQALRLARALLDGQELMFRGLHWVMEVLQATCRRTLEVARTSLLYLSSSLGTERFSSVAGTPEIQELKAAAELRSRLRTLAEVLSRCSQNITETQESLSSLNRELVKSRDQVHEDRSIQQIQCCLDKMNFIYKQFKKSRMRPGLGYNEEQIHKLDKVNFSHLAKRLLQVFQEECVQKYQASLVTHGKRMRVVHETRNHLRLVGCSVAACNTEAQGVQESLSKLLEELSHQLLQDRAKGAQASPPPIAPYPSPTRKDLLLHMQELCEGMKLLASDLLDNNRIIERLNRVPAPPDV

[4] = biological target: T2, cGMP-dependent protein kinase 1 (Homo sapiens) (UniProt Q13976); test: PKG1beta (h) Eurofins kinase panel
T2 sequence (whole entry): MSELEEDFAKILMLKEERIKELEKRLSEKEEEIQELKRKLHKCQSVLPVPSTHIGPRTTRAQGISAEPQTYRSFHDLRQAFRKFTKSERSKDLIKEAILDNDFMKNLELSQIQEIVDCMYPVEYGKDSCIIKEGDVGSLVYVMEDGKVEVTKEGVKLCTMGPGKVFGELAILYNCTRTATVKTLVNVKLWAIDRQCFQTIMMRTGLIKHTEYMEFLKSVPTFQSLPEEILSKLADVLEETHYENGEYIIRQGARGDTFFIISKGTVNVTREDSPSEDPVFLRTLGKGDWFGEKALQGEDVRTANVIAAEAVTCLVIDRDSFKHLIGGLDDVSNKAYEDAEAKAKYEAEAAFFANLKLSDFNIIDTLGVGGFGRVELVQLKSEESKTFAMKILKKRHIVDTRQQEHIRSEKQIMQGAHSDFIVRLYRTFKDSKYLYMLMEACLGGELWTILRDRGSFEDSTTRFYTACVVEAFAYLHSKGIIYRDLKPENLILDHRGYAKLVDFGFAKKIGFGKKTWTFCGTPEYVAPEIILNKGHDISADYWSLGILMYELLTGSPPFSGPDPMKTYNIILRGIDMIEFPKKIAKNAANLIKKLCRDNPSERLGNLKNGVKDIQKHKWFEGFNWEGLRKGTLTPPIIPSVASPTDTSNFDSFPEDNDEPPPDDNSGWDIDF

[5] = biological target: T3, SNF-related serine/threonine-protein kinase (Homo sapiens) (UniProt Q9NRH2); test: SNRK(h) Eurofins kinase panel
T3 sequence (whole entry): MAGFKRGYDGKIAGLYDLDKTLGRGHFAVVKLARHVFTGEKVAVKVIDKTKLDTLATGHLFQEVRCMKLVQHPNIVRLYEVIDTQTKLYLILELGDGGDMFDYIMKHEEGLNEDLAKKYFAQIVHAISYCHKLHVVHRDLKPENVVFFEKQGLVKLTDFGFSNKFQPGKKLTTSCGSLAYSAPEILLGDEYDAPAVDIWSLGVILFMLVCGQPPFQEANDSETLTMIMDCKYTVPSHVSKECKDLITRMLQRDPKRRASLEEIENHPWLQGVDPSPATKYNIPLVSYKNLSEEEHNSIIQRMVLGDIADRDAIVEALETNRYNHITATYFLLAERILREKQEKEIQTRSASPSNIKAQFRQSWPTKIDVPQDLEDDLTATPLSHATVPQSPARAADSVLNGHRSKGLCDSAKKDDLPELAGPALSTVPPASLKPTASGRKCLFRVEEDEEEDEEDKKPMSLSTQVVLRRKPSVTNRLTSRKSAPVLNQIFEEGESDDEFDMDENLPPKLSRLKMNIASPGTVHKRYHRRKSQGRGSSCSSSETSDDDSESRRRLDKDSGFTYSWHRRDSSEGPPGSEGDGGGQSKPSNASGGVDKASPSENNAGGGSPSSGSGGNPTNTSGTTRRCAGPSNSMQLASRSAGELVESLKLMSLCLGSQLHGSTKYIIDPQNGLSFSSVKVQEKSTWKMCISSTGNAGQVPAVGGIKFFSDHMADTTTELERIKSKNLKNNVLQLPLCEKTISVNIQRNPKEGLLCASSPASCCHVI

[6] = biological target: Serine/threonine-protein kinase VRK2 (Homo sapiens) (UniProt Q86Y07); test: VRK2(h) Eurofins kinase panel
Serine/threonine-protein kinase VRK2 (Homo sapiens), sequence (Q86Y07 whole entry): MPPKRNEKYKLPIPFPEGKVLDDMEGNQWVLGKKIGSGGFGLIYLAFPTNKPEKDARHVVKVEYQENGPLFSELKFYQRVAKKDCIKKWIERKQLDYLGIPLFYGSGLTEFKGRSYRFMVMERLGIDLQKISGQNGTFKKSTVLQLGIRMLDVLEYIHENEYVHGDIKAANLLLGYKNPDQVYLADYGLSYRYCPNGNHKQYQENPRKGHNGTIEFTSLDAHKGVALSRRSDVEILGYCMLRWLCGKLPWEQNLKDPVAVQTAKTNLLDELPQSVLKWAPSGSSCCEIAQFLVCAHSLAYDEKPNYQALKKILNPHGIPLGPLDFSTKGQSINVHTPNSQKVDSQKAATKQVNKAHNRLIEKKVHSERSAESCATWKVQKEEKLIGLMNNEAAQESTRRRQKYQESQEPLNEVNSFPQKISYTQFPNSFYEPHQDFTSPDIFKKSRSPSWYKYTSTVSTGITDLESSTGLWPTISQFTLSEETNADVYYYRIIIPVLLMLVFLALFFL

Measured: % residual kinase activity

Glycogen synthase kinase-3 alpha (Homo sapiens), sequence (P49840 2-483 limits assumed): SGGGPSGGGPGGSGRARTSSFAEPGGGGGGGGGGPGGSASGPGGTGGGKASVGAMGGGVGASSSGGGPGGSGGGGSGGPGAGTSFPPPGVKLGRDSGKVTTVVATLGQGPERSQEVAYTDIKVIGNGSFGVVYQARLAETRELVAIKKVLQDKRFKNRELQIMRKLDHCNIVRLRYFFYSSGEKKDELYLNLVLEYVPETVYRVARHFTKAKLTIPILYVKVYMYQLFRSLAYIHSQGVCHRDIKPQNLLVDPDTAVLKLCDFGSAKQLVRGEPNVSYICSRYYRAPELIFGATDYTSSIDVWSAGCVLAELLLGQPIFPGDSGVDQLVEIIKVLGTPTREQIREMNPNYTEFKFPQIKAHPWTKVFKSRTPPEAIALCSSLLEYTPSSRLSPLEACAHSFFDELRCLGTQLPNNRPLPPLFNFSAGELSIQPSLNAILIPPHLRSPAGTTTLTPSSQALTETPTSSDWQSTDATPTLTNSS

CCc1ccccc1C(=O)Nc1n[nH]c2c(C)c(F)c(C3C(C#N)=C(C)N(C)C(C)=C3C#N)cc12 [BAY-3827]
inactive: [1] 66% | [2] 83% | [3] 108% | [4] 78% | [5] 113% | [6] 98%
